Data: patent publication US20190151283A1, “NON-STEROIDAL SELECTIVE GLUCOCORTICOID RECEPTOR AGONISTIC MODULATORS (SEGRAMs) AND USES THEREOF” (ASSOCIATION POUR LA RECHERCHE À L'IGBMC (ARI), priority 2017, published 2019)

Assays:
Assay type in all cases: in vivo, mouse
[1] = test system: Balb/C mice; assay: Dextran sodium sulfate (DSS)-induced ulcerative colitis
Protocol: To investigate the anti-inflammatory activity of CpdX and CpdX-D3 on a Th17 ulcerative colitis, Balb/C mice were treated with 3% DSS in drinking water for 13 days, with or without an intraperitoneal administration of either Dex, CpdX, CpdX(eA), CpdX(eB), CpdX-D3, CpdX-D3(eA) or CpdX-D3(eB) (1 mg/kg of body weight) on D11, D12 and D13.
At D14, RNA transcripts were extracted from mouse colons. IL-1β, IL-6, IL-17a, IL-17f, TSLP and MMP13 transcripts were analyzed by q-RT-PCR. Colon samples were also harvested for histological analyses (with H&E staining).

[2] = test system: B6 male mice; assay: Insulin level, insulin tolerance test and liver insulin signalling after three-month treatment; conditions: three months; conclusion
Protocol: B6 male mice (8-week-old) were subjected daily for three months to a subcutaneous injection of either vehicle (NaCl 0.9%), Dex, CpdX, CpdX(eA), CpdX(eB), CpdX-D3, CpdX-D3(eA) or CpdX-D3(eB) (1 mg/kg body weight, diluted in vehicle). After three months, the blood was collected at 10 a.m. by retro-orbital puncture in lithium-heparin coated vials, and the plasmatic level of insulin was determined.
For the intraperitoneal insulin tolerance test (IPITT), mice were fasted for 6 hours before test. The blood glucose concentration was measured both before (T0) and during a one-hour period after insulin i.p. injection (0.75 U/kg body weight).
Following this three-month treatment, liver samples were harvested and lysed in the RIPA buffer (20 mM Tris pH 8, 150 mM NaCl, 10% glycerol, 1% NP-40 and 2 mM EDTA). Antibodies from Cell Signaling were used to assess by Western-Blotting the relative level of p-IRS1 (S318), IRS-1, p-AKT (S473) and AKT.

[3] = test system: B6 male mice; assay: Bone formation after three-month treatment (micro-CT, WNT16 transcripts); conditions: s.c. 1 mg/kg daily, three months
Protocol: B6 male mice (8-week-old) were daily subjected for three months to either a subcutaneous injection of vehicle (NaCl 0.9%), Dex, CpdX, CpdX(eA), CpdX(eB), CpdX-D3, CpdX-D3(eA) or CpdX-D3(eB) (1 mg/kg body weight, diluted in NaCl 0.9%).
From each animal included in the experiments, one femur and the ipsilateral tibia were dissected and preserved in 70% ethanol for further bone microstructure analysis by micro-CT. The FX Quantum micro-CT scanner (Perkin Elmer) was used to perform measurements at the distal femur and midshaft tibia. All scans were performed with an isotropic voxel size of 10 μm, 160 μA tube current and 90 kV tube voltage.
Morphological 3D measurements were performed using the CTAn software (Bruker). Cortical bone parameters, which were measured in the tibia midshaft, included measures of the bone volume fraction as compared to the total volume, cortical thickness, total area, bone area and marrow area. The region of interest was selected from below the distal tibial crest and continued for 20 slices toward the proximal end of the tibia. Trabecular bone parameters were measured in the distal metaphysis of the femurs and included bone volume fraction, trabecular thickness, trabecular number and trabecular spacing. The region of interest was selected from below the distal growth plate where the epiphyseal cap structure completely disappeared and continued for 100 slices toward the proximal end of the femur.
The statistical significance as compared to vehicle treatment was calculated through one-way ANOVA test followed by Dunn's multiple comparison test, *p<0.05; **p<0.01; ***p<0.001; ****p<0.0001.

[4] = test system: B6 male mice; assay: Corticosterone synthesis and adrenal gland after three-month treatment
Protocol: B6 male mice (8-week-old) were daily subjected for three months to either a subcutaneous injection of vehicle (NaCl 0.9%), Dex, CpdX, CpdX(eA), CpdX(eB), CpdX-D3, CpdX-D3(eA) or CpdX-D3(eB) (1 mg/kg body weight, diluted in vehicle).
Following this long-term treatment, blood was collected at 10 a.m. and 6 p.m. by retro-orbital puncture in lithium-heparin coated vials, and the plasmatic level of corticosterone was determined. Adrenal glands were harvested and weighted. RNA transcripts were extracted and transcripts of the Cyp11a, Cyp11b1, Cyp11b2 and HSD3β genes were analyzed by q-RT-PCR. Histological analyses of the adrenal glands were also carried out.

[5] = test system: Balb/C mice; assay: Ovalbumin (OVA)-induced allergic conjunctivitis; conditions: 0.1% instillation D22 to D24, 20 minutes after the last OVA challenge
Protocol: To investigate the anti-inflammatory effect of CpdX or CpdX-D3 on an allergic conjunctivitis, Balb/C mice were intraperitoneally sensitized with 50 μg OVA with alum on both days D1 and D8, and then challenged from D15 to D21 with 250 μg OVA in 5 μL of sterilized vehicle (0.9% NaCl), which were directly instilled onto the conjunctival sac. From D22 to D24, mice were divided into several groups, and received instillations with either OVA alone, OVA together with 0.1% of either Dex, CpdX, CpdX(eA), CpdX(eB), CpdX-D3, CpdX-D3(eA) or CpdX-D3(eB).
The clinical appearance of mouse eyes was evaluated 20 minutes after the last instillation on D24. Clinical signs (conjunctival hyperemia, lid edema and tearing) were scored to evaluate the occurrence and severity of conjunctivitis as described by Gimenes et al. (2015. Experimental Eye Research 134:24-32). Parameters were graded on a scale ranging from 0 to 3, (0=absence, 1=mild, 2=moderate, and 3=severe symptoms), each animal receiving a total clinical score ranging from 0 to 9. The data were expressed as mean±SEM with at least four mice per treatment.

[6] = test system: Balb/C mice; assay: Skin atrophy after 8-day topical treatment of dorsal skin
From the text: To investigate whether, similarly to Dex, a topical administration of CpdX could result in a skin atrophy, Balb/C mice were shaved on the dorsal skin. Ethanol (vehicle), Dex, CpdX or either one of its two enantiomers CpdX(eA) or CpdX(eB), as well as the deuterated form CpdX-D3 or either one of its two enantiomers CpdX-D3(eA) or CpdX-D3(eB), were topically applied onto the dorsal skin for 8 days.
Upon completion of the treatments, RNA transcripts were extracted from dorsal skin samples and the transcripts of Kindlin-1 and REDD1 genes were analyzed by q-RT-PCR. Histological and morphometric analyses of the dorsal skin were also performed.

[7] = i.p. 1 mg/kg on D11, D12, D13, H&E histology

## [2H]C([2H])([2H])Oc1ccc(F)cc1C(C)(C)CC(O)(CNc1ccc2c(c1)COC2=O)C(F)(F)F (stereo not drawn) [CpdX-D3(eB), 5-{4-[2-(methoxy-D3)-5-fluorophenyl]-2-hydroxy-4-methyl-2-(trifluoromethyl)pentylamino}isobenzofuran-1(3H)-one]
[1]; colon, q-RT-PCR, D14
  pro-inflammatory genes overexpressed in DSS-induced ulcerative colitis (IL-1β, IL-6, IL-17a, IL-17f, TSLP, MMP13): similarly repressed
[1]; [7]
  colonic villus/crypt structure: almost reestablished
  mucosal and submucosal cell infiltration: significantly decreased
[2]
  insulin resistance: does not induce
[3]
  bone formation in cortical and trabecular bones: did not affect
[4]; at 10 a.m., compared to control mice (Vehicle)
  plasmatic corticosterone level: much higher
[4]; three months, histology
  cortex layers, most notably the fasciculata zone, of the adrenal glands: markedly increased
[4]; three months, histology, 'but not' = not decreased
  glomerulosa zone of the adrenal cortex: but not
[4]; three months, q-RT-PCR
  transcripts of Cyp11a, Cyp11b1 and HSD3β genes in adrenal glands: increased
[5]
  clinical signs of allergic conjunctivitis (conjunctival hyperemia, lid edema and tearing): considerably reduced
[6]; eight-day topical treatment, morphometric analysis
  epidermal thickness: not significantly decreased
[6]; topical 8 days, 1 nmole/cm^2, 'but not' = not increased
  transcription of the REDD1 gene in dorsal skin: but not
